Some targets named below: Carbonic anhydrase 1 (Homo sapiens, UniProt P00915); Carbonic anhydrase 2 (Homo sapiens, UniProt P00918); Carbonic anhydrase 4 (Homo sapiens, UniProt P22748).
What all share (assay): Esterase Activity Assay
Holding throughout (details): pH 7.4

Another test concerns the target T1, Carbonic anhydrase 3 (Bos taurus, UniProt Q3SZX4).
T1 sequence (Q3SZX4 whole entry): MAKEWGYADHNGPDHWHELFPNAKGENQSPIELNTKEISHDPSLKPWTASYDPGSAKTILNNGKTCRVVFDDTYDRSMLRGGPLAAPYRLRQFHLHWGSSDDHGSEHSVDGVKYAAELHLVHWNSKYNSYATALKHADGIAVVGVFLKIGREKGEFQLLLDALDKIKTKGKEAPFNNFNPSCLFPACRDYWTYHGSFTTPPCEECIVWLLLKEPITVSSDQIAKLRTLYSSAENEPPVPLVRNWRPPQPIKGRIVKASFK

Broadly, the Ki is the equilibrium dissociation constant of an inhibitor or competing ligand from its target. A low value points to higher affinity.

Carbonic anhydrase 1, sequence (P00915 whole entry): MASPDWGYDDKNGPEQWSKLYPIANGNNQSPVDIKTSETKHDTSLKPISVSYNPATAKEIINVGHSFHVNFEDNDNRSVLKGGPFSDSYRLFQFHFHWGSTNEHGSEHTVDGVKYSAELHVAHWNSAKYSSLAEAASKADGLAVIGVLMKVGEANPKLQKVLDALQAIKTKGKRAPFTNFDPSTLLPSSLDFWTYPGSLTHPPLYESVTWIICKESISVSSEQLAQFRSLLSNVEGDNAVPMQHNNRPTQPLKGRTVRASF
Carbonic anhydrase 4, sequence (P22748 whole entry): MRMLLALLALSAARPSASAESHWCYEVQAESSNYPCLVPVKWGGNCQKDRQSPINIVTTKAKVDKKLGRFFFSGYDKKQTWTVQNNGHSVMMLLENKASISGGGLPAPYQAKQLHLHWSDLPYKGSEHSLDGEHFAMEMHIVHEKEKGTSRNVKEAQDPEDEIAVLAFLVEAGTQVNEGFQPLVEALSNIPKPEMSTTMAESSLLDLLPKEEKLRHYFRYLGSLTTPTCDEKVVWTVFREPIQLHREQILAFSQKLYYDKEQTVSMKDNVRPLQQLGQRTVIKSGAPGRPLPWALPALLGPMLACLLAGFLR

For `O=c1c(O)c(-c2ccc(O)cc2O)oc2cc(O)cc(O)c12` [2-(2,4-dihydroxyphenyl)-3,5,7-trihydroxychromen-4-one], the Ki at Carbonic anhydrase 3 was 21.3 µM; at Carbonic anhydrase 1 it was 12.8 µM; on Carbonic anhydrase 2 it was 4.4 µM; on Carbonic anhydrase 4, 15.7 µM.

Turning to `O=c1c(O)c(-c2ccc(O)c(O)c2)oc2cc(O)cc(O)c12` [2-(3,4-dihydroxyphenyl)-3,5,7-trihydroxy-chromone;hydrate], the inhibition constant (Ki) worked out at 9.1 µM at Carbonic anhydrase 3, 3.6 µM at Carbonic anhydrase 1, 2.4 µM at Carbonic anhydrase 2 and 13.8 µM at Carbonic anhydrase 4.

For `Oc1ccccc1`, the Ki came out at 4.6 µM at Carbonic anhydrase 3, 17.3 µM at Carbonic anhydrase 1, 7.4 µM at Carbonic anhydrase 2 and 14.3 µM on Carbonic anhydrase 4.

`Oc1ccccc1O` [1,2-Dihydroxybenzene, XI]: the Ki at Carbonic anhydrase 3 is 6.5 µM; on Carbonic anhydrase 2, 11.4 µM.

On to `O=c1cc(-c2ccc(O)c(O)c2)oc2cc(O)cc(O)c12` [2-(3,4-dihydroxyphenyl)-5,7-dihydroxy-4H-chromen-4-one], for which the inhibition constant Ki turned out to be 5.4 µM at Carbonic anhydrase 3, 2.2 µM at Carbonic anhydrase 1, 0.74 µM on Carbonic anhydrase 2 and 4.4 µM at Carbonic anhydrase 4.

In the case of `Oc1cc(O)c2c(c1)O[C@H](c1ccc(O)c(O)c1)[C@@H](O)C2` [(+)-Catechin], the Ki at Carbonic anhydrase 3 was 2.2 µM; at Carbonic anhydrase 1, 6.8 µM; at Carbonic anhydrase 4 it was 5.6 µM.

For `Oc1cccc(O)c1`, the Ki came out at 219 µM at Carbonic anhydrase 3, 828 µM at Carbonic anhydrase 1, 9.4 µM at Carbonic anhydrase 2 and 634 µM at Carbonic anhydrase 4.

As to `O=c1cc(-c2ccc(O)cc2)oc2cc(O)cc(O)c12` [Naringenin, 18], the inhibitory constant (Ki) is 11.6 µM at Carbonic anhydrase 3, 4.1 µM on Carbonic anhydrase 1, 2.7 µM on Carbonic anhydrase 2 and 9.1 µM on Carbonic anhydrase 4.

These data come from BindingDB's records for doi:10.3109/14756366.2011.643303 (Ondokuz Mayis University, 2013).
